What all share (format): binding
The target of one experiment is T1, JAK1 (Homo sapiens, UniProt P23458).
T1 construct: endogenous in cells; host or cells: Molt4 (ATCC CRL-1582) and Ramos (ATCC CRL-1596) cells; mixed lysate 1:2
Briefly: Kinobeads assay with immunodetection, JAK1. As to conditions: for pIC50: Kinobeads assay, mixed Molt4/Ramos lysate, read-out: Inhibition values (IC50) JAK1. A digest of the protocol: (§1)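 Competition binding: test compounds (9-step 1:3 dilutions of a 5 mM DMSO stock) compete with affinity matrix ligand for kinases in Molt4 plus Ramos lysate (ratio 1:2, 10 mg/mL) over 3 h in a cold room. Captured kinases are detected by specific antibodies in dot blot, and IC50 values are derived per kinase.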

The target of another experiment is T2, JAK3 (Homo sapiens, UniProt P52333).
T2 construct: endogenous in cells; host or cells: Molt4 (ATCC CRL-1582) and Ramos (ATCC CRL-1596) cells; mixed lysate 1:2
T2 sequence (P52333 1-1124): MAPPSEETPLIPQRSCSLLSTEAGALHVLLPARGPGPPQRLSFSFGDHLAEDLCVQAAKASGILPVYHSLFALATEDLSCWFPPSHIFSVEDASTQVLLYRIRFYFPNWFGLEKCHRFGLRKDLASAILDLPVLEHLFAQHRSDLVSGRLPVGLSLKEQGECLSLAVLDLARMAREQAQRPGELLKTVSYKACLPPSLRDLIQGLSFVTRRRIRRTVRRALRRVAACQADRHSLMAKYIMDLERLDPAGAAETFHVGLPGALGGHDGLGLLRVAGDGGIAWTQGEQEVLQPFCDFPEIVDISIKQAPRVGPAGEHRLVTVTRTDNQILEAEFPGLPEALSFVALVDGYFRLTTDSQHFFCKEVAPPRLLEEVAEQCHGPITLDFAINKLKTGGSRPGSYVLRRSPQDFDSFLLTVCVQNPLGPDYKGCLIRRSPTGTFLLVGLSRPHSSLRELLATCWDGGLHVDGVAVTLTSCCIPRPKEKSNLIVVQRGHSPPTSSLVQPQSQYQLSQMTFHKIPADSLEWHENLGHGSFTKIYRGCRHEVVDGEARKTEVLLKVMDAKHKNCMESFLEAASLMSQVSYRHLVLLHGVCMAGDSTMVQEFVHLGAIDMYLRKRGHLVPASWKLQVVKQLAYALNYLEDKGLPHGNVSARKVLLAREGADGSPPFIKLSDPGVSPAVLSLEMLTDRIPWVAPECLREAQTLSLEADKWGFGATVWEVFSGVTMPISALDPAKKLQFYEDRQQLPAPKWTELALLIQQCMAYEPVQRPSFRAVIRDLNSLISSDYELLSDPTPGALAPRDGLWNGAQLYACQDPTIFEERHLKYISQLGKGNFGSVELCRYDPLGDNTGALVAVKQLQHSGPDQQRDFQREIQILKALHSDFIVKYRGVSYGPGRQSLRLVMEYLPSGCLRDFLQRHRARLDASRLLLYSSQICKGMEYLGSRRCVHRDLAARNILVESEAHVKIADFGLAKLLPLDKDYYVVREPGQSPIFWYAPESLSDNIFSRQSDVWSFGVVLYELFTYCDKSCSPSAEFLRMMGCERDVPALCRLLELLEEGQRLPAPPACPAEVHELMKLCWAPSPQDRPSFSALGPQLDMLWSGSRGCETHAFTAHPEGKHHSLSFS
Description: Kinobeads assay with immunodetection, JAK3. The note with it: for pIC50: Kinobeads assay, mixed Molt4/Ramos lysate, read-out: Inhibition values (IC50) JAK3. A digest of the protocol:
as §1

The next experiment deals with T3, TYK2 (Homo sapiens, UniProt P29597).
T3 construct: endogenous in cells; host or cells: Molt4 (ATCC CRL-1582) and Ramos (ATCC CRL-1596) cells; mixed lysate 1:2
Briefly: Kinobeads assay with immunodetection, TYK2. The note with it: for pIC50: Kinobeads assay, mixed Molt4/Ramos lysate, read-out: Inhibition values (IC50) Tyk2. A digest of the protocol:
as §1

The next experiment concerns the target T4, JAK2 (Homo sapiens, UniProt O60674).
T4 construct: endogenous in cells; host or cells: Molt4 (ATCC CRL-1582) and Ramos (ATCC CRL-1596) cells; mixed lysate 1:2
Briefly: Kinobeads assay with immunodetection, JAK2. As to conditions: mixed Molt4/Ramos lysate, read-out: Inhibition values (IC50) JAK2. A digest of the protocol: as §1

pIC50: −log10 of the molar value. Some results are limits rather than exact numbers.

T3 sequence (P29597 whole entry): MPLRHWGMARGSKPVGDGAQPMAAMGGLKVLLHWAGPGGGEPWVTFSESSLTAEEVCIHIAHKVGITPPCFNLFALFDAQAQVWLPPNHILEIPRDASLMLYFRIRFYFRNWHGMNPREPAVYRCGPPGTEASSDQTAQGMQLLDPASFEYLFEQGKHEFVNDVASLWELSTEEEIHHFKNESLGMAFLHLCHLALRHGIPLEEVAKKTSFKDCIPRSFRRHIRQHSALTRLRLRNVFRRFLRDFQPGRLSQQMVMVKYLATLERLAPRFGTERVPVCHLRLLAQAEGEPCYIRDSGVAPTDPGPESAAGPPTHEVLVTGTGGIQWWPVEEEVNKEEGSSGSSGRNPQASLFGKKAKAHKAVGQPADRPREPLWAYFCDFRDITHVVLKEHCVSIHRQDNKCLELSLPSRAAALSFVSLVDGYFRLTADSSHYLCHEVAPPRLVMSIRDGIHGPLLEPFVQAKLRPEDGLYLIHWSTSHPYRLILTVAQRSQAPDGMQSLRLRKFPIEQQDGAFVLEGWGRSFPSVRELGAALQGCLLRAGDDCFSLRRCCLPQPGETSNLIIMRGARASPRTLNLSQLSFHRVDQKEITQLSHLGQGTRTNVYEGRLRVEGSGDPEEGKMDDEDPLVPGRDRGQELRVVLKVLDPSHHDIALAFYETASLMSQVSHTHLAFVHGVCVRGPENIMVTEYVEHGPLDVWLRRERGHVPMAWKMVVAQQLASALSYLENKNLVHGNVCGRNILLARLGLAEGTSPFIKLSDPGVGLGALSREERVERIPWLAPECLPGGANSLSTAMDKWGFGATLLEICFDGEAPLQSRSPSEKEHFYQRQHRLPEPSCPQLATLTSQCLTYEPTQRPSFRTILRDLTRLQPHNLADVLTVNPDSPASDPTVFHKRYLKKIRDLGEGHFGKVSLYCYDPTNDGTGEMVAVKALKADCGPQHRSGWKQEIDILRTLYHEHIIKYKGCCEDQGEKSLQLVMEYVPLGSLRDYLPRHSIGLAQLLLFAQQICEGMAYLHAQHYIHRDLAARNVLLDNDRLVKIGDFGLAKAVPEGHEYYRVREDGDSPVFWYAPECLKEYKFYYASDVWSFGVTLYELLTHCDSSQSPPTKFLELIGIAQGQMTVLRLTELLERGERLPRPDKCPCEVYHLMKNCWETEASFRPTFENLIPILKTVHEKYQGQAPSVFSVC
T4 sequence (O60674 whole entry): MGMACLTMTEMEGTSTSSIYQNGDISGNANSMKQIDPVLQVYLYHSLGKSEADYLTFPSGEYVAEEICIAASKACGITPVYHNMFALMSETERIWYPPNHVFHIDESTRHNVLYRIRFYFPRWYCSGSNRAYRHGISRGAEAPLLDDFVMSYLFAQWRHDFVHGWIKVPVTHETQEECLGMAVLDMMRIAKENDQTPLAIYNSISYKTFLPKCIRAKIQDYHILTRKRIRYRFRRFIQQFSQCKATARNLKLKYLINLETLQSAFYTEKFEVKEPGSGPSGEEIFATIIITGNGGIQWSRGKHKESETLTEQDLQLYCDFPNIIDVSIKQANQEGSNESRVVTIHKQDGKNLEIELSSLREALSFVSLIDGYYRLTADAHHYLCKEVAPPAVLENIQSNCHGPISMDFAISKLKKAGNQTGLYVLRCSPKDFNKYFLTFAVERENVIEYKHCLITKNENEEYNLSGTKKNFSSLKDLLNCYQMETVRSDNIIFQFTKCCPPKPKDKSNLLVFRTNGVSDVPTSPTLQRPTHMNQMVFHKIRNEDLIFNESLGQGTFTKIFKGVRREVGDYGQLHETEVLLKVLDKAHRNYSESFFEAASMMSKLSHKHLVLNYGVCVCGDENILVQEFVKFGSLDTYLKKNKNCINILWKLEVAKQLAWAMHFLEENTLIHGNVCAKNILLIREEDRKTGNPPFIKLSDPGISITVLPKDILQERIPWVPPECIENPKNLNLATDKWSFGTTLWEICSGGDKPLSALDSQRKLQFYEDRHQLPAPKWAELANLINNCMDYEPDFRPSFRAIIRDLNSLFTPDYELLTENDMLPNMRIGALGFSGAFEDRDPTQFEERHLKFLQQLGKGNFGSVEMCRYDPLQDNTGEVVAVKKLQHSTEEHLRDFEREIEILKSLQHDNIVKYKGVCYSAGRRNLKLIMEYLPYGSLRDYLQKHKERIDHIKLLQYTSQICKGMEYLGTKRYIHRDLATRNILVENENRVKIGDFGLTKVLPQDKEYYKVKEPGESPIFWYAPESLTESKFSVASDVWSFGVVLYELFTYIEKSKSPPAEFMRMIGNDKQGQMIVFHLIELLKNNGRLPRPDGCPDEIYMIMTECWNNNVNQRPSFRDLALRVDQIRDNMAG
T1 sequence (P23458 whole entry): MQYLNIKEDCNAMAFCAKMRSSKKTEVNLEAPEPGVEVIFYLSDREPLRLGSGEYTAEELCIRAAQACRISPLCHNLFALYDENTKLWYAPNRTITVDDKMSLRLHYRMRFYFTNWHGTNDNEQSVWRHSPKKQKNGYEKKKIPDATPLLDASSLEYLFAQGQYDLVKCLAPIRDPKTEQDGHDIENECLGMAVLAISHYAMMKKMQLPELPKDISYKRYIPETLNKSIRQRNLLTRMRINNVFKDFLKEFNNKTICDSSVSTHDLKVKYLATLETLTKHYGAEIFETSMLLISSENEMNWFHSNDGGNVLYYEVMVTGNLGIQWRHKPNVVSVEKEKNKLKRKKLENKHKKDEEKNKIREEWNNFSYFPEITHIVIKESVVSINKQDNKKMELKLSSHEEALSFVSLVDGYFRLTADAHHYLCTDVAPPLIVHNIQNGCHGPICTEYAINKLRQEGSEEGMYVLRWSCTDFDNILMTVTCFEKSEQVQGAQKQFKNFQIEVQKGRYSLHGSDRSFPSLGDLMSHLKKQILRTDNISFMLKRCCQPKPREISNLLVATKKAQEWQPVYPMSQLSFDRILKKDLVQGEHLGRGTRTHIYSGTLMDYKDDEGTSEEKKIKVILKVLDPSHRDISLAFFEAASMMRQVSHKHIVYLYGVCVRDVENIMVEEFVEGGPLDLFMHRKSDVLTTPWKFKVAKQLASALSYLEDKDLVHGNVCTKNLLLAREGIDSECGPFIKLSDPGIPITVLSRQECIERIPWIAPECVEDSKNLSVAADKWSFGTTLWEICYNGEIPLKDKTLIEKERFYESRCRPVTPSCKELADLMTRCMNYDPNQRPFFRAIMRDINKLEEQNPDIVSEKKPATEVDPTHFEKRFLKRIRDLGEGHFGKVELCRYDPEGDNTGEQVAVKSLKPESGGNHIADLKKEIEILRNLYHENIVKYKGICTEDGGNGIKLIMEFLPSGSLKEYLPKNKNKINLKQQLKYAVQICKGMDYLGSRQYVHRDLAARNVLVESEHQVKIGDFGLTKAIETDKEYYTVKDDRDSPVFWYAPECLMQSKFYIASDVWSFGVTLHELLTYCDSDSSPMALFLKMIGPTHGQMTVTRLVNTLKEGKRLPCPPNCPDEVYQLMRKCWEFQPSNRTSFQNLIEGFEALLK

For `C=CS(=O)(=O)N1CCCC[C@H]1CNc1nc(Nc2cnn(C)c2)ncc1Cl` [Example 38, (S)-5-chloro-N^2-(1-methyl-1H-pyrazol-4-yl)-N^4-((1-(vinylsulfonyl)piperidin-2-yl)methyl)pyrimidine-2,4-diamine], the pIC50 at JAK1 is 6.00 to 7.00; at JAK3 it was over 7.00; at TYK2, 6.00 to 7.00; on JAK2, 5.00 to 6.00. Further, at JAK3, the “Selectivity ratio over JAK2, JAK3” value was “JAK3 = 57”.

Regarding `Cc1cnc(Nc2cnn(CC(F)F)c2)nc1NC[C@@H]1CCCN1CCS(C)(=O)=O` [Example 123, (S)—N^2-(1-(2,2-difluoroethyl)-1H-pyrazol-4-yl)-5-methyl-N^4-((1-(2-(methylsulfonyl)ethyl)pyrrolidin-2-yl)methyl)pyrimidine-2,4-diamine], the “Selectivity ratio over JAK2, JAK1” value at JAK1 is recorded as “JAK1 = 182”. Moreover, the pIC50 on JAK1 was over 7.00; on JAK3, 6.00 to 7.00; at TYK2, over 7.00; on JAK2, 5.00 to 6.00.

`CC(=O)N1CC(CNc2nc(Nc3cnn(CCO)c3)ncc2Cl)C1` [Example 17, 1-(3-(((5-chloro-2-((1-(2-hydroxyethyl)-1H-pyrazol-4-yl)amino)pyrimidin-4-yl)amino)methyl)azetidin-1-yl)ethanone]: the pIC50 at JAK1 is 5.00 to 6.00; at JAK3 it was 5.00 to 6.00; at TYK2 it was 5.00 to 6.00; at JAK2, under 5.00.

Regarding `Cn1cc(Nc2ncc(Cl)c(NC[C@H]3CCCN(C(=O)CCC#N)C3)n2)cn1` [Example 138, (R)-4-(3-(((5-chloro-2-((1-methyl-1H-pyrazol-4-yl)amino)pyrimidin-4-yl)amino)methyl)piperidin-1-yl)-4-oxobutanenitrile], the pIC50 was over 7.00 at JAK1, over 7.00 on JAK3, over 7.00 on TYK2 and 6.00 to 7.00 on JAK2. In addition, on JAK3, the “Selectivity ratio over JAK2, JAK3” value was “JAK3 = 23”.

In the case of `CC(=O)N1CCCC[C@@H]1CNc1nc(Nc2cnn(C)c2)ncc1Cl` [Example 39, (R)-1-(2-(((5-chloro-2-((1-methyl-1H-pyrazol-4-yl)amino)pyrimidin-4-yl)amino)methyl)piperidin-1-yl)ethanone], the pIC50 at JAK1 is 6.00 to 7.00; on JAK3, 6.00 to 7.00; on TYK2, over 7.00; on JAK2 it was 5.00 to 6.00. Moreover, the “Selectivity ratio over JAK2, Tyk2” value at TYK2 is on record as “Tyk2 = 8”.

For `C=CS(=O)(=O)N1CCC[C@H]1CNc1nc(Nc2cnn(CCO)c2)ncc1Cl` [Example 15, (S)-2-(4-((5-chloro-4-(((1-(vinylsulfonyl)pyrrolidin-2-yl)methyl)amino)pyrimidin-2-yl)amino)-1H-pyrazol-1-yl)ethanol], the “Selectivity ratio over JAK2, JAK1” value at JAK1 is given as “JAK1 = 13”. The pIC50 at JAK1 was over 7.00; on JAK3, over 7.00; at TYK2, over 7.00; on JAK2, 6.00 to 7.00.

Regarding `Cn1cc(Nc2ncc(Cl)c(NC[C@H]3CCN(CCO)C3)n2)cn1` [Example 56, (R)-2-(3-((5-chloro-2-(1-methyl-1H-pyrazol-4-ylamino)pyrimidin-4-ylamino)methyl)pyrrolidin-1-yl)ethanol], the “Selectivity ratio over JAK2, JAK1” value on JAK1 is on record as “JAK1 = 46”. Further, the pIC50 at JAK1 is 6.00 to 7.00; on JAK3, 5.00 to 6.00; at TYK2, 5.00 to 6.00; at JAK2, 5.00 to 6.00.

Regarding `Cc1cnc(Nc2cnn(CC(F)F)c2)nc1NC[C@H]1CCN(CCS(C)(=O)=O)C1` [Example 127, (R)—N^2-(1-(2,2-difluoroethyl)-1H-pyrazol-4-yl)-5-methyl-N^4-((1-(2-(methylsulfonyl)ethyl)pyrrolidin-3-yl)methyl)pyrimidine-2,4-diamine], on JAK1, the “Selectivity ratio over JAK2, JAK1” value is “JAK1 = 83”. The pIC50 was over 7.00 on JAK1, 6.00 to 7.00 on JAK3, 6.00 to 7.00 on TYK2 and 5.00 to 6.00 on JAK2.

In the case of `Cc1cnc(Nc2cnn(C)c2)nc1NC[C@H]1CCCN1C(=O)CC#N` [Example 109, (R)-3-(2-(((5-methyl-2-((1-methyl-1H-pyrazol-4-yl)amino)pyrimidin-4-yl)amino)methyl)pyrrolidin-1-yl)-3-oxopropanenitrile], the pIC50 was over 7.00 at JAK1, 6.00 to 7.00 on JAK3, over 7.00 on TYK2 and 6.00 to 7.00 at JAK2. Further, the “Selectivity ratio over JAK2, Tyk2” value on TYK2 was “Tyk2 = 69”.

For the compound `C=CC(=O)N1CCC[C@@H]1CNc1nc(Nc2cnn(CCO)c2)ncc1Cl` [Example 4, (R)-1-(2-(((5-chloro-2-((1-(2-hydroxyethyl)-1H-pyrazol-4-yl)amino)pyrimidin-4-yl)amino)methyl)pyrrolidin-1-yl)prop-2-en-1-one], the pIC50 at JAK1 was over 7.00; on JAK3 it was 6.00 to 7.00; at TYK2 it was over 7.00; at JAK2, 6.00 to 7.00. Besides, on TYK2, the “Selectivity ratio over JAK2, Tyk2” value is reported as “Tyk2 = 8”.

In the case of `C=CC(=O)N1CC[C@H](CNc2nc(Nc3cnn(CCO)c3)ncc2Cl)C1` [Example 23, (R)-1-(3-(((5-chloro-2-((1-(2-hydroxyethyl)-1H-pyrazol-4-yl)amino)pyrimidin-4-yl)amino)methyl)pyrrolidin-1-yl)prop-2-en-1-one], the pIC50 on JAK1 is over 7.00; at JAK3 it was over 7.00; at TYK2, over 7.00; on JAK2, 5.00 to 6.00. Moreover, the “Selectivity ratio over JAK2, JAK3” value on JAK3 is “JAK3 = 270”.

On to `CS(=O)(=O)N1CCCC[C@@H]1CNc1nc(Nc2cnn(CCO)c2)ncc1Cl` [Example 44, (R)-2-(4-((5-chloro-4-(((1-(methylsulfonyl)piperidin-2-yl)methyl)amino)pyrimidin-2-yl)amino)-1H-pyrazol-1-yl)ethanol], for which the negative logarithm of the IC50 (pIC50) on JAK1 was 6.00 to 7.00; at JAK3, over 7.00; on TYK2, 6.00 to 7.00; on JAK2, 6.00 to 7.00. Further, the “Selectivity ratio over JAK2, JAK3” value at JAK3 was “JAK3 = 20”.

As to `Cn1cc(Nc2ncc(Cl)c(NCC3COCCN3CCS(C)(=O)=O)n2)cn1` (centres unmarked) [Example 87, 5-chloro-N^2-(1-methyl-1H-pyrazol-4-yl)-N^4-((4-(2-(methylsulfonyl)ethyl)morpholin-3-yl)methyl)pyrimidine-2,4-diamine], the pIC50 at JAK1 is 6.00 to 7.00; at JAK3, over 7.00; at TYK2, 6.00 to 7.00; at JAK2, 5.00 to 6.00. Also, at JAK3, the “Selectivity ratio over JAK2, JAK3” value is listed as “JAK3 = 33”.

Take `CCN1CCC[C@@H]1CNc1nc(Nc2cnn(C)c2)ncc1Cl` [Example 60, (R)-5-chloro-N^4-((1-ethylpyrrolidin-2-yl)methyl)-N^2-(1-methyl-1H-pyrazol-4-yl)pyrimidine-2,4-diamine]: at JAK1, the “Selectivity ratio over JAK2, JAK1” value is on record as “JAK1 = 45”. Besides, the pIC50 on JAK1 is 6.00 to 7.00; at JAK3, 6.00 to 7.00; on TYK2, 6.00 to 7.00; at JAK2 it was under 5.00.

Regarding `Cn1cc(Nc2ncc(Cl)c(NC[C@H]3CCCN3CCC(F)(F)F)n2)cn1` [Example 80, (R)-5-chloro-N^2-(1-methyl-1H-pyrazol-4-yl)-N^4-((1-(3,3,3-trifluoropropyl)pyrrolidin-2-yl)methyl)pyrimidine-2,4-diamine], the pIC50 is over 7.00 on JAK1, 6.00 to 7.00 on JAK3, over 7.00 at TYK2 and over 7.00 at JAK2. The “Selectivity ratio over JAK2, Tyk2” value at TYK2 is “Tyk2 = 33”.

As usually defined, the pIC50 is the IC50 on a negative log10 scale, so that one unit is a factor of ten.

These data come from US20150005281A1, “PYRIMIDINE-2,4-DIAMINE DERIVATIVES AS KINASE INHIBITORS” (Cellzome Limited, priority 2011, published 2015).
